# Measurements as given in patent publication US10472346B2, “Potent gamma-secretase modulators” (The General Hospital Coporation, priority 2014, dated 2019).
# How the values were obtained:
# [1] = system: APP-CTF (C-terminal fragment); assay: Accumulation of APP-CTFs in brain extracts (immunoblot, anti-APP carboxyl-terminal antibody); type: in vivo; conditions: administered doses of 5, 25 or 50 mg/kg
# Protocol: FIG. 7: Protein blots of indicated proteins from subjects administered vehicle and Compound 1 at doses of 5, 25 and 50 mg/kg.
# Brain extracts which were prepared using 1.0% SDS run on SDS-PAGE, transferred to PVDF membranes and immunoblots were performed using an anti-APP carboxyl-terminal antibody.
# [2] = system: total Aβ peptides; assay: Levels of total Aβ peptides, SHSYSY-APP cell-based assay (sandwich ELISA); conditions: concentration response, percent solvent control
# Source text: FIG. 8: Representative concentration response curves of Compound 1 using our primary and orthogonal medium throughput SHSYSY-APP cell-based screening assays (10). Compounds are first screened two times in triplicate in our UCSD sandwich Aβ42 ELISA on sequential days and the average of the two assays must be within 3-fold of each other before being entered into the CDD relational database. The UCSD sandwich ELISA assay can easily handle 20 compounds per week. Compounds with Aβ42 IC50 values <100 nM continue through the testing funnel. The Z′ score and the % CV for the UCSD Aβ42 sandwich ELISA assay are 0.8 and 4, respectively. For the Meso Scale triplex assay the Z′ scores are 0.7, 0.9 and 0.6 Aβ42, Aβ40 and Aβ38, respectively and the % CV's are 7, 2 and 1 for Aβ42, Aβ40 and Aβ38, respectively. Aβ total peptides are measured using a sandwich ELISA.
# The figure depicts percent solvent control (Aβ40/Aβ42/AβTotal) (left axis) and percent solvent control (Aβ38) again log of, concentration of Compound 1.
compound,measurement,setting,value
"COc1nc(-c2cc(C)c(N[C@@H](C)c3ccc(F)cc3)nn2)ccc1-n1cnc(C)c1 [Compound 1, (S)—N-(1-(4-fluorophenyl)ethyl)-6-(6-methoxy-5-(4-methyl-1H-imidazol-1-yl)pyridin-2-yl)-4-methylpyridazin-3-amine]",accumulation of APP-CTF (C-terminal fragment),[1],does not cause accumulation of APP-CTF
same,levels of total Aβ peptides,[2],does not decrease levels of total Aβ peptides
